From patent publication US6596727B1, “Substituted pyrimidines, processes for their preparation, and their use as pesticides and fungicides” (priority 1992, dated 2003)

Tested on: larvae (L3) of the species Nilaparvata lugens
Assay: Nilaparvata lugens larvae test on dipped rice plants
Type: in vivo
Settings: 250 ppm of the active ingredient, 21° C., after 4 days
Excerpt: Rice seed is placed into glass culture dishes containing cotton wool and germinated under moist conditions and, after the stem has grown to a length of approx. 8 cm, it is dipped together with the leaves into the test solution. The test solution is allowed to run off from the treated rice plants, and the plants are transferred to culture containers and populated with batches of 10 larvae (L3) of the species Nilaparvata lugens, the individual test concentrations being kept separate from each other. After the sealed culture containers have been kept at 21° C., the mortality of the cicada larvae can be determined after 4 days.
Under these test conditions, the compounds according to Example No. 9, 25, 30, 93, 99, 432 have a 100% activity at a test concentration of 250 ppm of the active ingredient.

| Compound | mortality of the cicada larvae (activity) |
| --- | --- |
| CCC(C)(C)C1CCC(Nc2ncnc(COC)c2OC)CC1 (stereo not drawn) [Example 30] | 100% |
| COCc1ncnc(NC2CCC(c3ccccc3)CC2)c1OC (mixture of isomers) [Example 93] | 100% |
| COCc1ncnc(NC2CCC(C(C)C)CC2)c1OC (stereo not drawn) [Example 25] | 100% |
| COCc1ncnc(NC2CCC(C(C)(C)C)CC2)c1OC (mixture of isomers) [Example 9] | 100% |
| CCc1ncnc(OC2CCC(c3ccc(OC(C)(C)C)cc3)CC2)c1Cl (stereo not drawn) [Example 432] | 100% |

Tested on: tropical cattle ticks (Boophilus microplus)
Assay: In vitro test with tropical cattle ticks, inhibition of oviposition
Type: in vivo
Settings: 500 ppm active substance; females immersed five minutes; two weeks after the treatment
Experimental: In vitro test with tropical cattle ticks (Boophilus microplus)
To prepare a suitable preparation of active substance, the active substances were dissolved at a concentration of 10% (w/v) in a mixture composed of dimethylformamide (85 g), nonylphenol polyglycol ether (3 g) and oxethylated castor oil (7 g), and the resulting emulsion concentrates were diluted with water to a test concentration of 500 ppm.
Batches of ten females of the tropical tick Boophilus microplus which had sucked themselves full were immersed for five minutes in these active substance dilutions. The ticks were subsequently dried on filter paper and then attached, by their backs, to an adhesive film for the purpose of oviposition. The ticks were kept in an incubator at 28° C. and an atmospheric humidity of 90%.
As a control, female ticks were merely immersed in water. The inhibition of oviposition two weeks after the treatment was used to assess the effectiveness. 100% mean that no ticks have deposited eggs, 0% means that all ticks have deposited eggs.

| Compound | inhibition of oviposition |
| --- | --- |
| CC(C)(C)C1CCC(Oc2ncnc3c2CCCC3)CC1 (stereo not drawn) [Example 19] | 100% |
| CC(C)(C)C1CCC(Nc2ncnc3c2CCCC3)CC1 (mixture of isomers) [Example 10] | 100% |
| CCC(C)(C)C1CCC(Nc2ncnc(COC)c2OC)CC1 (stereo not drawn) [Example 30] | 100% |
| c1ccc(C2CCC(Oc3ncnc4c3CCCC4)CC2)cc1 (stereo not drawn) [Example 106] | 100% |
